Values of other authors as cited in US20180255779A1, “TRIAZOLE FORMULATIONS” (Vive Crop Protection Inc., priority 2013, published 2018).
Where two headings read alike, the source gives them in different places.

Tests used:
[1] = not given; remark: listed apart in the source
[2] = octanol-water

Compound: CC(C1CC1)C(O)(Cn1cncn1)c1ccc(Cl)cc1 (stereo not drawn) [Cyproconazole, (2RS,3RS;2RS,3SR)-2-(4-chlorophenyl)-3-cyclopropyl-1-(1H-1,2,4-triazol-1-yl)butan-2-ol]
- Photolytic Stability, DT50 (pH 7): DT 50: 40 d (aqueous photolysis at pH 7)

Compound: CCCC1COC(Cn2cncn2)(c2ccc(Cl)cc2Cl)O1 (stereo not drawn) [Propiconazole, (2RS,4RS;2RS,4SR)-1-[2-(2,4-dichlorophenyl)-4-propyl-1,3-dioxolan-2-ylmethyl]-1H-1,2,4-triazole]
- Solubility ([1]; heptane at 20° C.): 1585 mg/L (heptane at 20° C.)
- Solubility ([1]; water at 20° C.): 150 mg/L (water at 20° C.)
- Kow, log P [2]: log P: 3.72

Compound: Fc1ccc([C@]2(Cn3cncn3)O[C@H]2c2ccccc2Cl)cc1 (racemic) [Epoxiconazole, (2RS,3SR)-1-[3-(2-chlorophenyl)-2,3-epoxy-2-(4-fluorophenyl)propyl]-1H-1,2,4-triazole]
- Photolytic Stability, DT50 (pH 7): DT50: 52 d (aqueous photolysis at pH 7)

Compound: CC1COC(Cn2cncn2)(c2ccc(Oc3ccc(Cl)cc3)cc2Cl)O1 (stereo not drawn) [Difenoconazole, 3-chloro-4-[(2RS,4RS;2RS,4SR)-4-methyl-2-(1H-1,2,4-triazol-1-ylmethyl)-1,3-dioxolan-2-yl]phenyl 4-chlorophenyl ether]
- Kow, log P [2]: log P: 4.36

Compound: CC1(C)CC/C(=C\c2ccc(Cl)cc2)C1(O)Cn1cncn1 (racemic) [Triticonazole, (RS)-(E)-5-(4-chlorobenzylidene)-2,2-dimethyl-1-(1H-1,2,4-triazol-1-ylmethyl)cyclopentanol]
- Photolytic Stability, DT50 (pH 7): DT50: 3.1 d (aqueous photolysis at pH 7)

Compound: CCCCC(C#N)(Cn1cncn1)c1ccc(Cl)cc1 (racemic) [Myclobutanil, (RS)-2-(4-chlorophenyl)-2-(1H-1,2,4-triazol-1-ylmethyl)hexanenitrile]
- Solubility ([1]; heptane at 20° C.): 1020 mg/L (heptane at 20° C.)
- Solubility ([1]; methanol and acetone, both at 20° C.): 250000 mg/L (methanol and acetone, both at 20° C.)
- Solubility ([1]; water at 20° C.): 132 mg/L (water at 20° C.)
- Photolytic Stability, DT50 (aqueous photolysis at pH 7): DT50: 15 d (aqueous photolysis at pH 7)
- Kow, log P [2]: log P: 2.89

Compound: FC(F)C(F)(F)OCC(Cn1cncn1)c1ccc(Cl)cc1Cl (racemic) [Tetraconazole, (RS)-2-(2,4-dichlorophenyl)-3-(1H-1,2,4-triazol-1-yl)propyl 1,1,2,2-tetrafluoroethyl ether]
- Photolytic Stability, DT50 (pH 7): 217 days
